Assay results published in patent publication US7763596B2, “Selective glucocorticoid receptor agonists” (The University of Manchester, priority 2000, dated 2010).
Entries after “also recorded” stand apart in the source; their conditions may differ.

Experiments:
IL-8 = experiment: Repression of endogenous IL-8 in A549s; format: cell-based, human; settings: A549 cells; compound G at 100 nM, p=0.0076
Description: The A549 cell line (ECACC:86012804) is derived from the human lung epithelial cells from a carcinoma. This cell line contains functional endogenous GR and is stimulated by Tumour Necrosis Factor (TNF) to produce IL-8.
In this assay TNF was used to stimulate NFkB activity in a cell line that expressed endogenous GR. The ability of NFkB to induce IL-8 gene transcription could then be repressed by GR in a ligand dependent manner and, therefore, used to measure transrepression.
COS7 cells were transfected with 3 μg NRE-Luc per 10 cm tissue culture dish. The cells were plated out in to 24 well plates after transfection and left for 18 hours to recover before the steroids of FIGS. 1 and 2A were added. After incubation for 3 hours with the steroids, TNF was added to the samples and after another 15 hours an IL-8 assay (R&D systems) was performed on the cell supernatants according to the manufacturers instructions. Briefly, triplicates of 100 μl of a 1:2 dilution of cell supernatant and 100 μl of a known dilution series of IL-8 were added to the wells of a microtitre plate coated with a monoclonal IL-8 antibody, the samples were incubated with a polyclonal biotinylated IL-8 antibody for 1 hour at room temperature and washed. Streptavidin horse radish peroxidase solution was then added to all wells and incubated for 30 mins before being washed. Tetramethyl benzidine (TMB; a chromagen) was added to all the wells and incubated in the dark for 10 mins, the reaction was stopped by the addition of H2SO4 and the absorbance of each well was read on a spectrophotometer using 450 nm as the primary wavelength. Regression analysis was performed on the standard data and the unknowns were expressed as pg/ml of IL-8 in comparison to the standards.

[1] = test system: tyrosine amino transferase (TAT); experiment: Quantitation of endogenous tyrosine amino transferase (TAT) in the HEPG2 liver cell line; format: cell-based, human; settings: HEPG2, 1 μM; p=0.014, two tailed t-test
Description: The HEP G2 cell line (ECACC: 85011430) is derived from human liver epithelial cells from a well differentiated hepatocellular carcinoma. This cell line has functional endogenous GR and is stimulated by GR activation to produce tyrosine amino transferase.
In this method a colourimetric approach is used to quantitate TAT activity. The TAT enzyme catalyses the following reaction: L-tyrosine+2-oxoglutarate⇄4-hydroxyphenylpyruvate (pHPP)+L-glutamate
This reaction also requires pyridoxal phosphate (PLP) as a co-factor.
Strong alkali conditions can then be used to convert pHPP to p-hydroxybenzaldehyde (pHBA) and oxalate. The amount of pHBA can then be assessed by measuring its absorbance at 331 nm (extinction coefficient 19,900 M^−1cm^−1) this figure is then assumed to be directly proportional to TAT activity. HEPG2 cells were cultivated till confluent on a 10 cm plate (˜10^7 cells). These cells were then scraped off and suspended in 500 μl of ice cold 0.14M KCl. The cells were lysed by 3 cycles of 10 second burst sonication at full power (50 W, 20 kHz Sonicator; Jencons, Leighton Buzzard, UK). The cells were kept on ice between each burst. […]
(§1) For each reaction a control reaction was set up without the ketoglutarate. […] The samples were incubated at room temperature for a further 30 mins and then the absorbance of each sample was assessed at 331 nm on a spectrophotometer (Ultrospec III, Pharmacia).

[2] = test system: other members of the steroid receptor super family; experiment: Binding to other members of the steroid receptor super family
[3] = test system: zymosan induced neutrophil migration; experiment: Air pouch model of inflammation, zymosan induced neutrophil migration; format: in vivo, mice
Protocol: Male outbred Swiss albino mice (18-20 g body weight) were purchased from Bantin and Kingman (T.O. strain; Hull, Humberside) and maintained on a standard chow pellet diet with tap water ad libitum and a 12:00 h light/dark cycle. All animals were housed for 3 days prior to experimentation to allow body weight to reach 20-22 g. On the day of experiment mice ranged from 24-26 g.
Air-pouches were formed on the back of mice by air injection (2.5 ml s.c.) on day 0 and day 3 (Perretti and Flower, 1993).
Zymosan A was allowed to defrost at room temperature for 30 min prior to being added to sterile PBS at a concentration of 2 mg/ml forming a homogenous suspension.
(§2) At time 0, mice received either 0.5 ml of zymosan (1 mg) (group A, B, C) injected locally into the air-pouch. Group D and E were left untreated at this time-point. At 4 h post-zymosan the animals were placed in CO2. Air-pouches were then washed with 2 ml of PBS containing 3 mM EDTA, and livers were recovered and snap frozen for later analysis.
The number of migrated leukocytes (≧90% polymorphonuclear leukocytes, PMN) was determined in the lavage fluid from each air-pouch, by taking an aliquot (100 μl) of the lavage fluid and diluting 1:10 in Turk's solution (0.01% crystal violet in 3% acetic acid). The samples were then vortexed and 10 μl of the stained cell solution were placed in a Neubauer haematocymometer and neutrophils numbers counted using a light microscope (Olympus B061).
Neutrophil numbers were compared between groups using ANOVA plus the Bonferroni test. TAT levels were compared using a t-test.

[4] = test system: tyrosine amino transferase (TAT); experiment: Quantitation of tyrosine amino transferase (TAT) in the livers of air pouch mice; format: in vivo; settings: 3 μg i.p., FIG. 22
Protocol: as §2
Quantitation of Tyrosine Amino Transferase (TAT) Protein in the Livers: In this method a colourimetric approach is used to quantitate TAT activity. The TAT enzyme catalyses the following reaction: L-tyrosine+2-oxoglutarate⇄4-hydroxyphenylpyruvate (pHPP)+L-glutamate
This reaction also requires pyridoxal phosphate (PLP) as a co-factor. Strong alkali conditions can then be used to convert pHPP to p-hydroxybenzaldehyde (pHBA) and oxalate. The amount of pHBA can then be assessed by measuring its absorbance at 331 nm (extinction coefficient 19,900 M^−1cm^−1) this figure is then assumed to be directly proportional to TAT activity. Livers were homogenized and the cells were stored on ice. […]
as §1

Row | SMILES | repression of IL-8 production after TNF activation (IL-8) | TAT activity compared to dexamethasone [1] | binding to other members of the steroid receptor super family [2] | Neutrophils (10^6 per mouse) ([3]; 3 μg i.p. at -1 h, Zymosan 1 mg into air-pouch, 4 h time-point, mean ± S.E. of 8 mice) | reduction of neutrophil accumulation ([3]; 3 μg i.p., zymosan air pouch, 4 h) | liver TAT level compared with vehicle control groups [4]
1 | CC1CC2C3CCC4=CC(=O)C=CC4(C)C3(F)C(O)CC2(C)C1(O)C(=O)COC(=O)c1ccc(F)cc1 (centres unmarked) [Compound D] | exhibited transrepression | – | – | – | – | –
2 | CC1CC2C3CCC4=CC(=O)C=CC4(C)C3(F)C(O)CC2(C)C12OC(C)(C)OCC2=O (centres unmarked) [Compound A] | exhibited transrepression | – | – | – | – | –
3 | CCCNC(=O)C1(O)C(C)CC2C3CCC4=CC(=O)C=CC4(C)C3(F)C(O)CC21C (centres unmarked) [Compound G] | repressed IL-8 production better than dexamethasone | significant reduction in TAT activity | not to bind to other members of the steroid receptor super family | 6.33 ± 0.79 * 10^6 per mouse | ~30% | does not cause-induction; also recorded: did not reduce the level of TAT
